One assay has as its target mouse TAAR1 (Mus musculus (Mouse), UniProt Q923Y8). The assay can be described thus: Radioligand binding assay on mouse TAAR1. Particulars: mouse TAAR1 (first value of the cell), HEK-293 membranes; read-out: Ki (μM) mouse/rat. The essentials: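 Membranes from HEK293 cells stably expressing mouse TAAR1, Kd of radioligand determined per batch by saturation. Compounds tested 10 pM to 10 μM in duplicate, incubated 1 h at 4 °C, then filtration over PEI-soaked GF/C filters and scintillation counting.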

Another assay has as its target rat TAAR1 (Rattus norvegicus (Rat), UniProt Q923Y9). Kind of assay: Radioligand binding assay on rat TAAR1. Particulars: rat TAAR1 (second value of the cell), HEK-293 membranes; read-out: Ki (μM) mouse/rat. The essentials: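 Membranes from HEK293 cells stably expressing rat TAAR1 were used, with radioligand Kd determined by saturation for each batch. Compounds (10 pM to 10 μM, in duplicate) were incubated for 1 h at 4 °C. Bound radioactivity was collected by filtration onto PEI-soaked GF/C filters and counted by scintillation.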

The results in this text go back to US8802673B2, “Heterocyclic amine derivatives” (Hoffmann-La Roche Inc, priority 2011, dated 2014).

Sequence of rat TAAR1 (Q923Y9 whole entry): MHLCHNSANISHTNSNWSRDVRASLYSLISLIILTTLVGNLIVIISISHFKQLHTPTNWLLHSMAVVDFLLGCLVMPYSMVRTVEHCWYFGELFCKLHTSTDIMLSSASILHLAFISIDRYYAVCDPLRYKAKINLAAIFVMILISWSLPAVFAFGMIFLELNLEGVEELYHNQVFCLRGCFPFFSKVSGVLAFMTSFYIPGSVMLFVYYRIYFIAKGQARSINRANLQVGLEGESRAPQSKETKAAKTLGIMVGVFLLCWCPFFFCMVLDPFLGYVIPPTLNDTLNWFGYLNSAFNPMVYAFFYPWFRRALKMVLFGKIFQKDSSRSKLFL
Sequence of mouse TAAR1 (Q923Y8 whole entry): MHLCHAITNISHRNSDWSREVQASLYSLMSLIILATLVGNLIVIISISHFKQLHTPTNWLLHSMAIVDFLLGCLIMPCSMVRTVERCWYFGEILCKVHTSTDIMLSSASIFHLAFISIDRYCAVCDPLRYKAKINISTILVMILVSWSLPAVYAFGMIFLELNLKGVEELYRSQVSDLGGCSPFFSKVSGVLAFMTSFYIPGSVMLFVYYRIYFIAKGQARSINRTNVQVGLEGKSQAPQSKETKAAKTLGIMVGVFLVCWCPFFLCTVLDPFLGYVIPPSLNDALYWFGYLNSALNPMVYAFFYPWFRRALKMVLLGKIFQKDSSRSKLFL

Take `CCc1cnc(Nc2ccc([C@H]3CNCCO3)cc2F)nc1` [Example 117, (5-Ethyl-pyrimidin-2-yl)-((S)-2-fluoro-4-morpholin-2-yl-phenyl)-amine]: the values for the Ki at mouse TAAR1 and on rat TAAR1 were 0.0034 µM and 0.0104 µM, respectively.
On to `CC(C)Oc1cnc(Nc2ccc([C@H]3CNCCO3)cc2)nc1` [Example 122, (5-Isopropoxy-pyrimidin-2-yl)-((S)-4-morpholin-2-yl-phenyl)-amine], for which the values for the Ki at mouse TAAR1 and at rat TAAR1 were 0.0079 µM and 0.0847 µM, respectively.
For the compound `CC(C)Oc1cnc(Nc2ccc([C@@H]3CNCCO3)cc2)nc1` [Example 123, (5-Isopropoxy-pyrimidin-2-yl)-((R)-4-morpholin-2-yl-phenyl)-amine], the Ki at mouse TAAR1 was determined as 0.0174 µM; at rat TAAR1, 0.0796 µM.
For `c1cc([C@H]2CNCCO2)ccc1Nc1ncc(OCC2CC2)cn1` [Example 124, (S)-5-(Cyclopropylmethoxy)-N-(4-(morpholin-2-yl)phenyl)pyrimidin-2-amine], in that order: 0.0036 µM and 0.0348 µM.
Regarding `c1cc([C@@H]2CNCCO2)ccc1Nc1ncc(OCC2CC2)cn1` [Example 125, (R)-5-(Cyclopropylmethoxy)-N-(4-(morpholin-2-yl)phenyl)pyrimidin-2-amine], the Ki was found to be 0.0045 µM at mouse TAAR1 and 0.0278 µM on rat TAAR1.
In the case of `CCCc1cnc(Nc2ccc([C@@H]3CNCCO3)cc2F)nc1` [Example 128, ((R)-2-Fluoro-4-morpholin-2-yl-phenyl)-(5-propyl-pyrimidin-2-yl)-amine], the results for the Ki at mouse TAAR1 and on rat TAAR1 were 0.0049 µM and 0.0039 µM, respectively.
For `CCCc1cnc(Nc2ccc([C@H]3CNCCO3)cc2F)nc1` [Example 129, ((S)-2-Fluoro-4-morpholin-2-yl-phenyl)-(5-propyl-pyrimidin-2-yl)-amine], in that order: 0.0043 µM and 0.0068 µM.
As to `Fc1cc([C@@H]2CNCCO2)ccc1Nc1ncc(Cl)cn1` [Example 130, (5-Chloro-pyrimidin-2-yl)-((R)-2-fluoro-4-morpholin-2-yl-phenyl)-amine], the results for the Ki at mouse TAAR1 and at rat TAAR1 were 0.0051 µM and 0.0199 µM, respectively.
Consider `Fc1cc([C@H]2CNCCO2)ccc1Nc1ncc(Cl)cn1` [Example 131, (5-Chloro-pyrimidin-2-yl)-((S)-2-fluoro-4-morpholin-2-yl-phenyl)-amine], for which the Ki on mouse TAAR1 came out at 0.0028 µM; at rat TAAR1, 0.0379 µM.
As for `CCOc1cnc(Nc2ccc([C@@H]3CNCCO3)cc2F)nc1` [Example 132, (5-Ethoxy-pyrimidin-2-yl)-((R)-2-fluoro-4-morpholin-2-yl-phenyl)-amine], the Ki at mouse TAAR1 stood at 0.0047 µM; on rat TAAR1 it was 0.0182 µM.
For the compound `CCOc1cnc(Nc2ccc([C@H]3CNCCO3)cc2F)nc1` [Example 133, (5-Ethoxy-pyrimidin-2-yl)-((S)-2-fluoro-4-morpholin-2-yl-phenyl)-amine], the values for the Ki on mouse TAAR1 and at rat TAAR1 were 0.0052 µM and 0.0387 µM, respectively.
Turning to `Fc1cc([C@@H]2CNCCO2)ccc1Nc1ncc(C(F)(F)F)cn1` [Example 134, ((R)-2-Fluoro-4-morpholin-2-yl-phenyl)-(5-trifluoromethyl-pyrimidin-2-yl)-amine], the Ki worked out at 0.0069 µM on mouse TAAR1 and 0.0079 µM at rat TAAR1.
`Fc1cc([C@H]2CNCCO2)ccc1Nc1ncc(C(F)(F)F)cn1` [Example 135, ((S)-2-Fluoro-4-morpholin-2-yl-phenyl)-(5-trifluoromethyl-pyrimidin-2-yl)-amine]: the Ki came to 0.0057 µM at mouse TAAR1 and 0.0198 µM at rat TAAR1.
For `FC(F)(F)COc1cnc(Nc2ccc([C@H]3CNCCO3)cc2)nc1` [Example 136, ((S)-4-Morpholin-2-yl-phenyl)-[5-(2,2,2-trifluoro-ethoxy)-pyrimidin-2-yl]-amine], in that order: 0.0051 µM and 0.0494 µM.
On the same counts, the results for `FC(F)(F)COc1cnc(Nc2ccc([C@@H]3CNCCO3)cc2)nc1` [Example 137, ((R)-4-Morpholin-2-yl-phenyl)-[5-(2,2,2-trifluoro-ethoxy)-pyrimidin-2-yl]-amine] are 0.0037 µM and 0.0026 µM.
On the same counts, the results for `COCCOc1cnc(Nc2ccc([C@H]3CNCCO3)cc2)nc1` [Example 138] are 0.0641 µM and 1.36 µM.
Consider `COCCOc1cnc(Nc2ccc([C@@H]3CNCCO3)cc2)nc1` [Example 139], for which the Ki is 0.0667 µM on mouse TAAR1 and 1.06 µM on rat TAAR1.
For `COc1ccc(-c2cnc(Nc3ccc([C@H]4CNCCO4)cc3)nc2)cc1OC` [Example 141], in that order: 0.0027 µM and 0.0129 µM.
As to `COc1ccc(-c2cnc(Nc3ccc([C@@H]4CNCCO4)cc3)nc2)cc1OC` [Example 142], the Ki turned out to be 0.0027 µM on mouse TAAR1 and 0.0146 µM at rat TAAR1.
For `Fc1cc([C@@H]2CNCCO2)ccc1Nc1ncc(OCC(F)(F)F)cn1` [Example 144, ((R)-2-Fluoro-4-morpholin-2-yl-phenyl)-[5-(2,2,2-trifluoro-ethoxy)-pyrimidin-2-yl]-amine], in that order: 0.0042 µM and 0.0049 µM.
Regarding `Fc1cc([C@H]2CNCCO2)ccc1Nc1ncc(OCC(F)(F)F)cn1` [Example 145, ((S)-2-Fluoro-4-morpholin-2-yl-phenyl)-[5-(2,2,2-trifluoro-ethoxy)-pyrimidin-2-yl]-amine], the Ki at mouse TAAR1 came out at 0.0034 µM; at rat TAAR1 it was 0.0067 µM.
For `c1coc(-c2cnc(Nc3ccc([C@H]4CNCCO4)cc3)nc2)c1` [Example 147, (5-Furan-2-yl-pyrimidin-2-yl)-((S)-4-morpholin-2-yl-phenyl)-amine], the Ki worked out at 0.0009 µM at mouse TAAR1 and 0.0197 µM at rat TAAR1.
Turning to `c1coc(-c2cnc(Nc3ccc([C@@H]4CNCCO4)cc3)nc2)c1` [Example 148, (5-Furan-2-yl-pyrimidin-2-yl)-((R)-4-morpholin-2-yl-phenyl)-amine], the Ki on mouse TAAR1 was found to be 0.0017 µM; on rat TAAR1 it was 0.0083 µM.
On the same counts, the results for `COCCOc1cnc(Nc2ccc([C@@H]3CNCCO3)cc2F)nc1` [Example 151, ((R)-2-Fluoro-4-morpholin-2-yl-phenyl)-[5-(2-methoxy-ethoxy)-pyrimidin-2-yl]-amine] are 0.048 µM and 0.0954 µM.
As for `COCCOc1cnc(Nc2ccc([C@H]3CNCCO3)cc2F)nc1` [Example 152, ((S)-2-Fluoro-4-morpholin-2-yl-phenyl)-[5-(2-methoxy-ethoxy)-pyrimidin-2-yl]-amine], the Ki at mouse TAAR1 was 0.0196 µM; at rat TAAR1, 0.268 µM.
On to `FC(F)(F)c1ncc(Nc2ccc([C@H]3CNCCO3)cc2)cn1` [Example 153, ((S)-4-Morpholin-2-yl-phenyl)-(2-trifluoromethyl-pyrimidin-5-yl)-amine], for which the Ki was 0.007 µM at mouse TAAR1 and 0.84 µM on rat TAAR1.
As to `FC(F)(F)c1ncc(Nc2ccc([C@@H]3CNCCO3)cc2)cn1` [Example 154, ((R)-4-Morpholin-2-yl-phenyl)-(2-trifluoromethyl-pyrimidin-5-yl)-amine], the Ki came to 0.0096 µM on mouse TAAR1 and 0.863 µM at rat TAAR1.
On the same counts, the results for `Cc1cnc(Nc2ccc([C@H]3CNCCO3)cc2)cn1` [Example 156, (5-Methyl-pyrazin-2-yl)-((S)-4-morpholin-2-yl-phenyl)-amine] are 0.0093 µM and 0.833 µM.
Consider `Cc1cnc(Nc2ccc([C@@H]3CNCCO3)cc2)cn1` [Example 157, (5-Methyl-pyrazin-2-yl)-((R)-4-morpholin-2-yl-phenyl)-amine], for which the figures for the Ki at mouse TAAR1 and at rat TAAR1 were 0.0132 µM and > 10 µM, respectively.
